Entries after “also recorded” stand apart in the source; their conditions may differ.
Columns and labels:
Assay type in all cases: cell-based
ERα = target: T1, ERα (Homo sapiens, UniProt P03372); assay: HGELN-ERα stable reporter cell luciferase assay; details: for agonistic activity toward ERα (luciferase): HGELN-ERα cells, relative to 10 nM E2; for ranking order of estrogenic potency, ERα: HELN-ERα cell line; for ERα versus ERβ selectivity: HGELN-ERα vs HGELN-ERβ cells
T1 construct: expressed in transfected cells; host or cells: HGELN (HeLa-derived) cells, stably transfected
T1 sequence (P03372 1-595): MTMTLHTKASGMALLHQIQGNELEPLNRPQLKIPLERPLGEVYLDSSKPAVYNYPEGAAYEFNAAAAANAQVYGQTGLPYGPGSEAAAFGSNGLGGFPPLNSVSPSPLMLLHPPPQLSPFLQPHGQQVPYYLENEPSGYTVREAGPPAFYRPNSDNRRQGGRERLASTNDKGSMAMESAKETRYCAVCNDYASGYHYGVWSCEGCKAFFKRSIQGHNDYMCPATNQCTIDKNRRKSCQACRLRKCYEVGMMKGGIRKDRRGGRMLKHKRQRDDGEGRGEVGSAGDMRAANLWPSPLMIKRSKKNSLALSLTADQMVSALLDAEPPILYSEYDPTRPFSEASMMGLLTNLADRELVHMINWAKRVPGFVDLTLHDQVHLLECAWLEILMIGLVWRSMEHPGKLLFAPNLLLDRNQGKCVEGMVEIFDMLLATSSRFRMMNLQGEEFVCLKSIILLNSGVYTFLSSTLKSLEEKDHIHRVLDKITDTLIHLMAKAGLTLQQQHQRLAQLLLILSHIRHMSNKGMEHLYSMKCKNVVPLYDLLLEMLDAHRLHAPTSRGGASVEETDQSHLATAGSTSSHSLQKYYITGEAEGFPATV
Procedure: (§1) Reporter cell lines and stable gene expression assay. […] Briefly, reporter cells were seeded at a density of 20,000 cells/well in 96-well white opaque tissue culture plates and maintained in phenol-red–free Dulbecco’s modiﬁed Eagle’s medium (DMEM) supplemented with 5% dextran-coated, charcoal-treated fetal calf serum. Twenty-four hours later, culture medium was replaced with DMEM containing tested compounds. We performed assays in the absence of serum to avoid ligand capture by serum proteins. Sixteen hours after exposure, we replaced media with media containing 0.3 mM luciferin. Luminescence was measured in intact living cells for 2 sec in a Microbeta Wallac luminometer (PerkinElmer).

ERβ = target: T2, ERβ (Homo sapiens, UniProt Q92731); assay: HGELN-ERβ stable reporter cell luciferase assay; details: for agonistic activity toward ERβ (luciferase): HGELN-ERβ cells, relative to 10 nM E2; for ranking order of estrogenic potency, ERβ: HELN-ERβ cell line
T2 construct: expressed in transfected cells; host or cells: HGELN (HeLa-derived) cells, stably transfected
T2 sequence (Q92731 whole entry): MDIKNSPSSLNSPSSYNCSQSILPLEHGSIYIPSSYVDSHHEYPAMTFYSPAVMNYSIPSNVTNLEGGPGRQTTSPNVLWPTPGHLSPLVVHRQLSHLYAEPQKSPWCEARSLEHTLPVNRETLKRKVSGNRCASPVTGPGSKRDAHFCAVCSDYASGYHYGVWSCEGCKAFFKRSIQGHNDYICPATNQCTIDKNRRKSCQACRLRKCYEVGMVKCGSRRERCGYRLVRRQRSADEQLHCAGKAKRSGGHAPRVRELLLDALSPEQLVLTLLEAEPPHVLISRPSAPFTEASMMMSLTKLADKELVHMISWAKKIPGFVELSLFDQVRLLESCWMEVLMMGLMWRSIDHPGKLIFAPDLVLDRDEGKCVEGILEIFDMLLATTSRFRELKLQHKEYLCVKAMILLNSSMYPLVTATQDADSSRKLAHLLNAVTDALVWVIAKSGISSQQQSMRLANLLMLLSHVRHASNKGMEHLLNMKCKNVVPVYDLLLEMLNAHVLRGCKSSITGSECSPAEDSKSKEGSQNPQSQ
Procedure: as §1

PPARγ [1] = target: T3, PPARγ (Homo sapiens, UniProt P37231); assay: HGELN-PPARγ stable reporter cell luciferase assay; details: HGELN-PPARγ cells; for activation of PPARγ (luciferase): relative to 100 nM rosiglitazone
T3 sequence (P37231 238-505 limits assumed): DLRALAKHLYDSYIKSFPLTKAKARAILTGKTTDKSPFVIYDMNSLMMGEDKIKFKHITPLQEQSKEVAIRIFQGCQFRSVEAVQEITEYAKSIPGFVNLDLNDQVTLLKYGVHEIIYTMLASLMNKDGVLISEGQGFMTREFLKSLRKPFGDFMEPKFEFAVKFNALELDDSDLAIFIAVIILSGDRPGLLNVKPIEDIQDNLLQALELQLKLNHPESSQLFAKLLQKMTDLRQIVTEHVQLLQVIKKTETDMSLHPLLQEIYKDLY
Procedure: as §1

3T3L1 preadipocytes = assay: 3T3L1 preadipocyte differentiation (Oil Red O staining); details: for induction of adipogenesis (Oil Red O staining): 8-day treatment with 10 μg/mL insulin and ligand, TCBPA and TBBPA at 10 μM
Procedure: NIH3T3-L1 differentiation. Two-day postconfluent 3T3L1 preadipocytes (a gift from L. Fajas; Institut de Génétique Moléculaire, Montpellier, France) were induced to differentiate by 2-day treatment with a differentiation mixture (10 μg/mL insulin, 1 μM dexamethasone, 0.5 mM isobutylmethylxanthine) followed by 8-day treatment with 10 μg/mL insulin and PPARγ ligands. The medium was replaced every 48 hr. After differentiation, cells were stained with Oil Red O for morphological analyses, or RNA was extracted from the cells using the RNeasy RNA isolation kit (Qiagen, Courtaboeuf, France). For RNA extractions, four independent cultures were performed per condition. Reverse transcription was performed with random hexamers on 1 μg total RNA using SuperScript II reverse transcriptase (Invitrogen), and the reaction was diluted 100 times for amplification. Real-time polymerase chain reaction (PCR) quantification was then performed using SYBR Green technology (LightCycler; Roche Diagnostics, Meylan, France). Results were normalized to two housekeeping genes (18S and 36B4) and quantified using qBase (Roche Diagnostics).
Two-day postconfluent 3T3L1 cells were treated for 8 days with 10 μg/mL insulin with vehicle (0.1% DMSO) or the ligands as indicated. Rosi, rosiglitazone. (A) Entire wells imaged after Oil Red O staining. (B) Quantitative real-time PCR of PPARγ and adipocyte-specific fatty acid–binding protein AP2 expression levels in postconfluent 3T3-L1 cells treated with the ligands for 24 hr. Data were normalized to 18S or 36B4 controls and plotted as average fold induction ± SE (n = 3 per treatment).

[2] = test system: PPARγ target genes (AP2, PPARγ) in 3T3-L1 cells; assay: Real-time PCR of PPARγ target genes in 3T3-L1 cells
Procedure: Two-day postconfluent 3T3L1 preadipocytes (a gift from L. Fajas; Institut de Génétique Moléculaire, Montpellier, France) were induced to differentiate by 2-day treatment with a differentiation mixture (10 μg/mL insulin, 1 μM dexamethasone, 0.5 mM isobutylmethylxanthine) followed by 8-day treatment with 10 μg/mL insulin and PPARγ ligands. […] After differentiation, cells were stained with Oil Red O for morphological analyses, or RNA was extracted from the cells using the RNeasy RNA isolation kit (Qiagen, Courtaboeuf, France). […] Reverse transcription was performed with random hexamers on 1 μg total RNA using SuperScript II reverse transcriptase (Invitrogen), and the reaction was diluted 100 times for amplification. Real-time polymerase chain reaction (PCR) quantification was then performed using SYBR Green technology (LightCycler; Roche Diagnostics, Meylan, France). Results were normalized to two housekeeping genes (18S and 36B4) and quantified using qBase (Roche Diagnostics).
Two-day postconfluent 3T3L1 cells were treated for 8 days with 10 μg/mL insulin with vehicle (0.1% DMSO) or the ligands as indicated. […] (B) Quantitative real-time PCR of PPARγ and adipocyte-specific fatty acid–binding protein AP2 expression levels in postconfluent 3T3-L1 cells treated with the ligands for 24 hr.

PPARγ [3] = target: T3, PPARγ; assay: Transient transactivation assay in HeLa cells, GAL4-hPPARγ; details: 10 μM TBBPA, TCBPA, MEHP
zebrafish PPARγ = assay: Transient transactivation assay in HeLa cells, GAL4-zebrafish PPARγ LBD; details: 10 μM TBBPA, TCBPA, MEHP, 1 μM rosiglitazone

agonistic activity toward ERα (luciferase) (ERα) | agonistic activity toward ERβ (luciferase) (ERβ) | ranking order of estrogenic potency, ERα (ERα) | ranking order of estrogenic potency, ERβ (ERβ) | ranking of ability to activate PPARγ (PPARγ [1]) | Molecule | activation of PPARγ (luciferase) (PPARγ [1]) | induction of adipogenesis (Oil Red O staining) (3T3L1 preadipocytes) | further results
highest transactivation efficiency | – | monoBBPA > diBBPA > triBBPA | monoBBPA > diBBPA > triBBPA | TBBPA = triBBPA > diBBPA >>> monoBBPA | 3-MonobromoBPA [monoBBPA] | – | – | ERα versus ERβ selectivity (ERα): slight ERα selectivity
highest transactivation efficiency | – | monoBBPA > diBBPA > triBBPA | monoBBPA > diBBPA > triBBPA | TBBPA = triBBPA > diBBPA >>> monoBBPA | 3,3´-dibromoBPA [diBBPA] | – | – | ERα versus ERβ selectivity (ERα): slight ERα selectivity
– | – | monoBBPA > diBBPA > triBBPA | monoBBPA > diBBPA > triBBPA | TBBPA = triBBPA > diBBPA >>> monoBBPA | 3,3´,5-tribromoBPA [triBBPA] | highest potency | – | –

Further lines, the molecule ahead of its results:

Molecule | agonistic activity toward ERα (luciferase) (ERα) | agonistic activity toward ERβ (luciferase) (ERβ) | ranking order of estrogenic potency, ERα (ERα) | ranking order of estrogenic potency, ERβ (ERβ) | ranking of ability to activate PPARγ (PPARγ [1]) | activation of PPARγ (luciferase) (PPARγ [1]) | induction of adipogenesis (Oil Red O staining) (3T3L1 preadipocytes) | further results
CC(C)(c1ccc(O)cc1)c1ccc(O)cc1 [BPA, bisphenol A] | almost full agonistic activity; also recorded: highest transactivation efficiency | almost full agonistic activity | – | – | – | failed to activate; also recorded: absence of significant interaction | – | –
CC(C)(c1cc(Cl)c(O)c(Cl)c1)c1cc(Cl)c(O)c(Cl)c1 [TCBPA, 2,2-bis(3,5-dichloro-4-hydroxyphenyl)propane] | – | partially activated | – | – | – | partially activating PPARγ | induced adipogenesis | AP2 expression level compared with rosiglitazone [2]: much lesser extent; activation of human PPARγ (transient transfection) (PPARγ [3]): activators; activation of zebrafish PPARγ (transient transfection) (zebrafish PPARγ): activated
CC(C)(c1cc(Br)c(O)c(Br)c1)c1cc(Br)c(O)c(Br)c1 [TBBPA, 2,2-bis(3,5-dibromo-4-hydroxyphenyl)propane] | – | little effect | – | no estrogenic activity at all | – | – | induced adipogenesis | adipogenic action upon co-treatment with PPARγ antagonist CD5477 (3T3L1 preadipocytes; co-treatment with CD5477): inhibited the adipogenic action
CN(CCOc1ccc(CC2SC(=O)NC2=O)cc1)c1ccccn1 (centres unmarked) [rosiglitazone, reference compound] | – | – | – | – | – | – | strongly induced adipogenesis | activation of zebrafish PPARγ (transient transfection) (zebrafish PPARγ): completely inactive
